Reference: patent US8729061B2, “Pyrrolidine derivatives” (Hoffmann-La Roche Inc., priority 2011, dated 2014)

Assays:
Type in all cases: biochemical
[1] = biological target: human Cat L (Homo sapiens (Human), UniProt P07711); test: Cathepsin enzyme inhibition assay (fluorogenic peptide substrate), Cat L; settings: enzyme 1 nM, substrate Z-Val-Val-Arg-AMC 20 μM, pH 6.5
Experimental: (§1) Enzyme activity is measured by observing the increase in fluorescence intensity caused by cleavage of a peptide substrate containing a fluorophore whose emission is quenched in the intact peptide.
(§2) Assay buffer: 100 mM potassium phosphate pH 6.5, EDTA-Na 5 mM, Triton X-100 0.001%, DTT 5 mM.
(§3) Enzymes (all at 1 nM): human and mouse Cathepsin S, Cat K, Cat B, Cat L. Substrate (20 μM): Z-Val-Val-Arg-AMC, except for Cat K which uses Z-Leu-Arg-AMC (both from Bachem).
(§4) Excitation 360 nm, Emission 465 nm.
(§5) Enzyme is added to the substance dilutions in 96-well microtitre plates and the reaction is started with substrate. […] IC50 are calculated by standard methods. Inhibition of human Cat S, mouse Cat S, human Cat K, mouse Cat K, human Cat B, mouse Cat B, human Cat L and mouse Cat L have been measured separately.

[2] = biological target: human Cat B (Homo sapiens (Human), UniProt P07858); test: Cathepsin enzyme inhibition assay (fluorogenic peptide substrate), Cat B; settings: enzyme 1 nM, substrate Z-Val-Val-Arg-AMC 20 μM, pH 6.5
Experimental: as §1, §2, §3, §4, §5

[3] = biological target: human Cathepsin S (Homo sapiens (Human), UniProt P25774); test: Cathepsin enzyme inhibition assay (fluorogenic peptide substrate), Cat S; settings: enzyme 1 nM, substrate Z-Val-Val-Arg-AMC 20 μM, pH 6.5
Experimental: as §1, §2, §3, §4, §5

[4] = biological target: human Cat K (Homo sapiens (Human), UniProt P43235); test: Cathepsin enzyme inhibition assay (fluorogenic peptide substrate), Cat K; settings: enzyme 1 nM, substrate Z-Leu-Arg-AMC 20 μM, pH 6.5
Experimental: as §1, §2, §3, §4, §5

human Cathepsin S, sequence (P25774 115-331): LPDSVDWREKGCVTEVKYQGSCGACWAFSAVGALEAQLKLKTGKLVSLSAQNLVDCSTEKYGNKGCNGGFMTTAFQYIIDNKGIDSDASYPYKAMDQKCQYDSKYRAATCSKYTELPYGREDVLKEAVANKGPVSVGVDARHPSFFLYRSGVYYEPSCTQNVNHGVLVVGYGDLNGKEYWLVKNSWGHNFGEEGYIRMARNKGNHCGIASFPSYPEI
human Cat L, sequence (P07711 114-333): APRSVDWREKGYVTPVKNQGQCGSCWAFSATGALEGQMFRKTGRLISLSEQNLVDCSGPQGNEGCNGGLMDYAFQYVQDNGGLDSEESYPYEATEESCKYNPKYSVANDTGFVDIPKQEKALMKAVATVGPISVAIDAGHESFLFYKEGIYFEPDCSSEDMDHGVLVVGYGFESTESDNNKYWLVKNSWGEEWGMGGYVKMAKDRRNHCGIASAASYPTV
human Cat K, sequence (P43235 115-329): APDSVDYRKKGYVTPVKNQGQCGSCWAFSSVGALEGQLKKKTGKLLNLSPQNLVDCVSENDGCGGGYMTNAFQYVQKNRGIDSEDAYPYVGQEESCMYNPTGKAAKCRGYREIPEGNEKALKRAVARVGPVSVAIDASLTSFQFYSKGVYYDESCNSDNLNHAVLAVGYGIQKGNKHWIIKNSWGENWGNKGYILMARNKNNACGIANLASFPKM

SMILES | IC50 [1] [nM] | IC50 [2] [nM] | IC50 [3] [nM] | IC50 [4] [nM]
CC[C@H](NC(=O)[C@@H]1C[C@@H](S(=O)(=O)c2ccccc2Cl)CN1C(=O)C1(c2ccc(Br)cc2F)CC1)C(=O)C(=O)NC1CC1 [Example 14, (2S,4R)-1-(1-(4-bromo-2-fluorophenyl)cyclopropanecarbonyl)-4-(2-chlorophenylsulfonyl)-N—((S)-1-(cyclopropylamino)-1,2-dioxopentan-3-yl)pyrrolidine-2-carboxamide] | 10.4 | 150 | 0.668 | 37.3
CC[C@H](NC(=O)[C@@H]1C[C@@H](S(=O)(=O)c2ccccc2Cl)CN1C(=O)C1(c2ccc(Br)cc2)CC1)C(=O)C(=O)NC1CC1 [Example 15, (2S,4R)-1-(1-(4-bromophenyl)cyclopropanecarbonyl)-4-(2-chlorophenylsulfonyl)-N—((S)-1-(cyclopropylamino)-1,2-dioxopentan-3-yl)pyrrolidine-2-carboxamide] | 8.2 | 98.5 | 0.52 | 44.8
CCC[C@H](NC(=O)[C@@H]1C[C@@H](S(=O)(=O)c2ccccc2Cl)CN1C(=O)C1(c2ccc(Br)cc2)CC1)C(=O)C(=O)NC1CC1 [Example 16, (2S,4R)-1-(1-(4-bromophenyl)cyclopropanecarbonyl)-4-(2-chlorophenylsulfonyl)-N—((S)-1-(cyclopropylamino)-1,2-dioxohexan-3-yl)pyrrolidine-2-carboxamide] | 5.9 | 45.4 | 0.442 | 20.2
CCC[C@H](NC(=O)[C@@H]1C[C@@H](S(=O)(=O)c2ccccc2Cl)CN1C(=O)C1(c2ccc(I)cc2)CC1)C(=O)C(=O)NC1CC1 [Example 18, (2S,4R)-4-(2-chlorophenylsulfonyl)-N—((S)-1-(cyclopropylamino)-1,2-dioxohexan-3-yl)-1-(1-(4-iodophenyl)cyclopropanecarbonyl)pyrrolidine-2-carboxamide] | 8.4 | 70.1 | 0.6 | 21
CC[C@H](NC(=O)[C@@H]1C[C@@H](S(=O)(=O)c2ccccc2C(F)(F)F)CN1C(=O)C1(c2ncc(Cl)cc2F)CC1)C(=O)C(=O)NC1CC1 [Example 19, (2S,4R)-1-(1-(5-chloro-3-fluoropyridin-2-yl)cyclopropanecarbonyl)-N—((S)-1-(cyclopropylamino)-1,2-dioxopentan-3-yl)-4-(2-(trifluoromethyl)phenylsulfonyl)pyrrolidine-2-carboxamide] | 32.4 | 424 | 0.593 | 758
CCC[C@H](NC(=O)[C@@H]1C[C@@H](S(=O)(=O)c2ccccc2C(F)(F)F)CN1C(=O)C1(c2ncc(Cl)cc2F)CC1)C(=O)C(=O)NC1CC1 [Example 20, (2S,4R)-1-(1-(5-chloro-3-fluoropyridin-2-yl)cyclopropanecarbonyl)-N—((S)-1-(cyclopropylamino)-1,2-dioxohexan-3-yl)-4-(2-(trifluoromethyl)phenylsulfonyl)pyrrolidine-2-carboxamide] | 18.5 | 245 | 0.56 | 347
CC[C@H](NC(=O)[C@@H]1C[C@@H](S(=O)(=O)c2ccccc2C(F)(F)F)CN1C(=O)C1(c2ccc(Cl)cc2)CC1)C(=O)C(=O)NC1CC1 [Example 21, (2S,4R)-1-(1-(4-chlorophenyl)cyclopropanecarbonyl)-N—((S)-1-(cyclopropylamino)-1,2-dioxopentan-3-yl)-4-(2-(trifluoromethyl)phenylsulfonyl)pyrrolidine-2-carboxamide] | 28.7 | 165 | 0.668 | 406
CCC[C@H](NC(=O)[C@@H]1C[C@@H](S(=O)(=O)c2ccccc2C(F)(F)F)CN1C(=O)C1(c2ccc(Cl)cc2)CC1)C(=O)C(=O)NC1CC1 [Example 22, (2S,4R)-1-(1-(4-chlorophenyl)cyclopropanecarbonyl)-N—((S)-1-(cyclopropylamino)-1,2-dioxohexan-3-yl)-4-(2-(trifluoromethyl)phenylsulfonyl)pyrrolidine-2-carboxamide] | 26.6 | 144 | 0.983 | 405
CC[C@H](NC(=O)[C@@H]1C[C@@H](S(=O)(=O)c2ccccc2Cl)CN1C(=O)C1(c2ncc(Br)cc2F)CC1)C(=O)C(=O)NC1CC1 [Example 23, (2S,4R)-1-(1-(5-bromo-3-fluoropyridin-2-yl)cyclopropanecarbonyl)-4-(2-chlorophenylsulfonyl)-N—((S)-1-(cyclopropylamino)-1,2-dioxopentan-3-yl)pyrrolidine-2-carboxamide] | 42.1 | 1230 | 2.98 | 299
CCC[C@H](NC(=O)[C@@H]1C[C@@H](S(=O)(=O)c2ccccc2Cl)CN1C(=O)C1(c2ncc(Cl)cc2F)CC1)C(=O)C(=O)NC1CC1 [Example 24, (2S,4R)-1-(1-(5-chloro-3-fluoropyridin-2-yl)cyclopropanecarbonyl)-4-(2-chlorophenylsulfonyl)-N—((S)-1-(cyclopropylamino)-1,2-dioxohexan-3-yl)pyrrolidine-2-carboxamide] | 10.8 | 190 | 0.55 | 71.7
CC[C@H](NC(=O)[C@@H]1C[C@@H](S(=O)(=O)c2ccccc2Cl)CN1C(=O)C1(c2ncc(Cl)cc2F)CC1)C(=O)C(=O)NC1CC1 [Example 25, (2S,4R)-1-(1-(5-chloro-3-fluoropyridin-2-yl)cyclopropanecarbonyl)-4-(2-chlorophenylsulfonyl)-N—((S)-1-(cyclopropylamino)-1,2-dioxopentan-3-yl)pyrrolidine-2-carboxamide] | 9.8 | 251 | 0.403 | 97.7
CC(C)(NC(=O)[C@@H]1C[C@@H](S(=O)(=O)c2ccccc2Cl)CN1C(=O)C1(c2ccc(Cl)cc2)CC1)C(=O)C(=O)NC1CC1 [Example 26, (2S,4R)-1-(1-(4-chlorophenyl)cyclopropanecarbonyl)-4-(2-chlorophenylsulfonyl)-N-(4-(cyclopropylamino)-2-methyl-3,4-dioxobutan-2-yl)pyrrolidine-2-carboxamide] | 3100 | 25000 | 10.5 | 25000
O=C(NC1CC1)C(=O)C1(NC(=O)[C@@H]2C[C@@H](S(=O)(=O)c3ccccc3Cl)CN2C(=O)C2(c3ccc(Cl)cc3)CC2)CC1 [Example 27, (2S,4R)-1-(1-(4-chlorophenyl)cyclopropanecarbonyl)-4-(2-chlorophenylsulfonyl)-N-(1-(2-(cyclopropylamino)-2-oxoacetyl)cyclopropyl)pyrrolidine-2-carboxamide] | 6800 | 25000 | 17.9 | 25000
CC(C)C[C@H](NC(=O)[C@@H]1C[C@@H](S(=O)(=O)c2ccccc2Cl)CN1C(=O)C1(c2ccc(Cl)cc2)CC1)C(=O)C(=O)NC1CC1 [Example 29, (2S,4R)-1-(1-(4-chlorophenyl)cyclopropanecarbonyl)-4-(2-chlorophenylsulfonyl)-N—((S)-1-(cyclopropylamino)-5-methyl-1,2-dioxohexan-3-yl)pyrrolidine-2-carboxamide] | 18.4 | 178 | 1.27 | 69
O=C(NC1CC1)C(=O)[C@H](CC1CCCCC1)NC(=O)[C@@H]1C[C@@H](S(=O)(=O)c2ccccc2Cl)CN1C(=O)C1(c2ccc(Cl)cc2)CC1 [Example 30, (2S,4R)-1-(1-(4-chlorophenyl)cyclopropanecarbonyl)-4-(2-chlorophenylsulfonyl)-N—((S)-1-cyclohexyl-4-(cyclopropylamino)-3,4-dioxobutan-2-yl)pyrrolidine-2-carboxamide] | 23.4 | 210 | 1.42 | 137
CCCCNC(=O)C(=O)[C@H](CCC)NC(=O)[C@@H]1C[C@@H](S(=O)(=O)c2ccccc2Cl)CN1C(=O)C1(c2ccc(Cl)cc2)CC1 [Example 32, (2S,4R)—N—((S)-1-(butylamino)-1,2-dioxohexan-3-yl)-1-(1-(4-chlorophenyl)cyclopropanecarbonyl)-4-(2-chlorophenylsulfonyl)pyrrolidine-2-carboxamide] | 7.7 | 29.4 | 0.734 | 24
CC[C@H](NC(=O)[C@@H]1C[C@@H](S(=O)(=O)c2ccccc2Cl)CN1C(=O)C1(c2ccc(Cl)cc2)CC1)C(=O)C(=O)NCc1ccccc1 [Example 33, (2S,4R)—N—((S)-1-(benzylamino)-1,2-dioxopentan-3-yl)-1-(1-(4-chlorophenyl)cyclopropanecarbonyl)-4-(2-chlorophenylsulfonyl)pyrrolidine-2-carboxamide] | 13.6 | 77 | 1.11 | 52.9
C[C@H](NC(=O)[C@@H]1C[C@@H](S(=O)(=O)c2ccccc2Cl)CN1C(=O)C1(c2ccc(Cl)cc2)CC1)C(=O)C(=O)NC1CC1 [Example 34, (2S,4R)-1-(1-(4-chlorophenyl)cyclopropanecarbonyl)-4-(2-chlorophenylsulfonyl)-N—((S)-4-(cyclopropylamino)-3,4-dioxobutan-2-yl)pyrrolidine-2-carboxamide] | 28 | 399 | 0.787 | 444
